This note sets out measurements from patent US20050070519A1, “Cyclisation process for the preparation of c-2 beta-lactam compounds” (priority 2001, published 2005).

The assay has as its target T1, BLS (β-lactam synthetase), polyhistidine tagged (Streptomyces clavuligerus, UniProt P0DJQ7).
T1 construct: made in house; host or cells: E. coli BL21(DE3), co-expressed with chaperonin GroELS
T1 sequence (P0DJQ7 1-513): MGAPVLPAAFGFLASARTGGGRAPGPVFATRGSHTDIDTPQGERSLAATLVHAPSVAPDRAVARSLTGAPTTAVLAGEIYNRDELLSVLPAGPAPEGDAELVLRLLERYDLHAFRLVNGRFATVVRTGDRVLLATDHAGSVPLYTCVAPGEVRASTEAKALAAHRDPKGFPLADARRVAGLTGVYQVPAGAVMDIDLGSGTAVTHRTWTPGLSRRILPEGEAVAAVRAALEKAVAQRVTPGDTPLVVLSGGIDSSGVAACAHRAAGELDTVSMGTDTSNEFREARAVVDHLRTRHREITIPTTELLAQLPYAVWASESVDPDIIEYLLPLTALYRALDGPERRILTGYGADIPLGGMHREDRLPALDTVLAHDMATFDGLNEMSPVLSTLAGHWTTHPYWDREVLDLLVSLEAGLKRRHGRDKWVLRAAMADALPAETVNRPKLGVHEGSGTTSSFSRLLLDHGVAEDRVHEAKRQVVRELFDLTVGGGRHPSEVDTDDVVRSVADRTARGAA
The assay is described as follows: fluorescence detection pre-column derivatised HPLC substrate assay with polyhistidine tagged BLS. In kind it is biochemical. The text has this:
The bls gene has previously been expressed at relatively low levels using a pET24a(+) construct and purified by an involved two column protocol giving low overall yields (McNaughton, H. J.; Thirkettle, J. E.; Zhang, Z. H.; Schofield, C. J.; Jensen, S. E.; Barton, B.; Greaves, P. J. Chem. Soc., Chem. Commun. 1998, 2325-2326; Bachmann, B. O.; Townsend, C. A. Biochemistry 2000, 39, 11187-11193). To facilitate purification a polyhistidine tagged form of BLS (β-lactam synthetase) was produced by cloning bis into the pET28a(+) vector (from Novagen). […]
The bls gene in the vector pET28a(+) and a plasmid bearing the chaperonin GroELS^13 were simultaneously transformed into E. coli BL21(DE3) for co-expression. […] When the absorbance at 600 nm reached ˜1.0, IPTG was added to a final concentration of 1.0 mM and the cells harvested 16 hours later by centrifugation. […]
The 2-methylated substrate analogue (6) was initially assayed as a substrate for BLS using a fluorescence detection pre-column derivatised HPLC assay based on the work of Kai et al (Kai, M.; Miyazaki, T.; Yamaguchi, M.; Ohkura, Y. J. Chromatogr. 1983, 425-436). […]
Reactions were incubated at 37° C. for 15 minutes and then derivatised. […] Fluorescence was measured at 425 nm against 325 nm excitation. […]

On to 2-Methyl CEA, for which, under “larger scale incubation, product isolated by HPLC, 1H NMR (500 MHz) analysis”, the “relative substrate efficiency of the two 2-methyl epimers” value is “both epimers are approximately equally efficient substrates”. The “conversion of 2-methyl CEA (6) to 2-methyl DGPC (9)” value (standard assay conditions: 2 mM substrate, 5 mM ATP, 10 mM MgCl2, pH 9, ca. 74 μg enzyme, 37° C., 15 minutes) is on record as “ca. 50%”.
